The test system of one data set is AK4.4 tumors. Briefly: Orthotopic AK4.4 PDAC model in obese FVB mice, metformin in drinking water. The format is in vivo, mouse. An excerpt: Wild-type (WT) C57BL/6 and FVB male mice were originally obtained from The Jackson Laboratory (The Jackson Laboratory, Bar Harbor, Me.) and bred and maintained in our defined-flora animal facility. Mice were maintained on a 12-h light-dark cycle in a temperature-controlled barrier facility, with ad libitum access to food and acidified water. To generate obese/diabetic mouse models, mice (6-weeks old) were given a 60% fat diet (D12492, Research Diets, New Brunswick, N.J.) for 10 weeks as previously described (49-51). For tumor experiments, the PAN02 and AK4.4 syngeneic PDAC models were used in C57BL/6 and FVB immunocompetent mice, respectively. PAN02 cells (SMAD4-m174) (52) were obtained from ATCC. AK4.4 cells (KrasG12D and p53^+/−) were isolated from mice generating spontaneous pancreatic tumors (Pt∫1-Cre/LSL-Kras^G12D/p53^Loxi−) (53). Orthotopic pancreatic tumors were generated by implanting a small piece (1 mm^3) of viable tumor tissue (from a source tumor in a separate donor animal) into the pancreas of a 6-8- week-old male lean or obese FVB (AK4.4 model) or C57BL/6 (PAN02 model) mouse. Both tumor models used were authenticated by IDEXX Laboratories. (PAN02: IDEXX RADIL Case # 22366-2013. AK4.4: IDEXX RADIL Case # 27818-2014).
At day 21, plasma and tumor samples were collected, and tumors were weighed and processed for further analysis.
This can be translated to the human equivalent dose by using the Reagan-Shaw method (54). According to the formula for the human equivalent dose [(mg/kg)=animal dose (mg/kg)×animal (km)/human (km). Km for a 60 kg human adults equals 37 and for a 20 g mouse equals 3], the human equivalent of murine dose of 300 mg/kg is 1459 mg for an average sized 60 kg adult human. Therefore, the selected dose in the present study is within the safe therapeutic range recorded in humans. […] This was compatible with the therapeutic periods reported in previous studies (55, 56). […] The amount added to each animal cage was calculated based on the average daily water intake for that cage during a period of 2 weeks prior to treatment initiation, and adjusted every three days based on water consumption and body weight of the animals. […] For in vitro experiments, a range of concentration from 0.05 to 25 mM depending on the cell line used, as discussed below.
Immediately following excision, tumor tissue was snap frozen and stored in liquid nitrogen. Total RNA was extracted and relative gene expression for macrophage M1/M2 markers was determined using a Sybr-green based standard protocol. In addition, total RNA was extracted and relative gene expression was determined using RT2 Profiler PCR Arrays system (Qiagen) on a Stratagene Mx3000P QPCR System using pre-made pathway-focused arrays (“Fibrosis”-Cat. Number: PAMM011Z; “Epithelial to Mesenchymal Transition (EMT)”-Cat. Number: PAMM090Z; “TGF-β signaling targets”-PAMM235Z; “Extracellular Matrix & Adhesion Molecules”-Cat. Number: PAMM013Z; and “Common cytokines ”-Cat. Number: PAMM021Z).
Each tumor sample was homogenized directly in lysis buffer for protein extraction. 20 ug of denatured protein per sample was loaded on 7%, 10% and 12% SDS-polyacrylamide gels. Antibodies used: phospho-p38 MAPKT^180/Y182 and p38; phospho-JNK (SAPK/JNK)^Thr183/Tyr185 and JNK; phospho-AKT^Ser473 and AKT, phospho-ERK(p44/42 MAPK)^T202/Y204 and ERK; phospho-NF-κB^Ser536 and NK-κB; p65^Ser536; phospho-Smad2^Ser465/467 and Smad2; phospho-IGF-I Receptor β^Tyr1135 and IGF; Phospho-IRS-1^Ser612 and IRS; IR; phpspho-stat3^Tyr705 and stat3; Phospho-AMPKα^Thr172 and Ampkα; phospho-Ampkβ^Ser108 and Ampk; phospho-ACC^Ser79 and ACC; Phospho-PDGF Receptor β^Tyr751 and PDGF Receptor β and snail, c-cadherin and vimentin, TGF-β, β-catenin, twist, LC3B. […]

Another data set relates to MCA-IV tumors. As to the kind of experiment: MCA-IV breast cancer in lean and obese mice, anti-VEGF therapy. In kind it is in vivo, mouse.
For data set [1] the following is noted: patients with type 2 diabetes taking this drug; cited from earlier work.
Setting [2] is: obese FVB mice, metformin 300 mg/Kg.
Where [3] appears, read: obese FVB mice, metformin 300 mg/Kg in drinking water.
[4] abbreviates: obese FVB mice, metformin 300 mg/Kg in drinking water, day 7 to 21.

SMILES strings stand for the structures.

Turning to `CN(C)C(=N)N=C(N)N` [metformin, 3-(diaminomethylidene)-1,1-dimethylguanidine], in the data set with AK4.4 tumors (PCR array, pooled samples), the “expression of genes involved in ECM remodeling (including MMPs) and EMT” value was “reduced the expression”. For the same molecule, in the data set on AK4.4 tumors (Western blot), the “E-cadherin, protein expression” value is “increased”; the “EMT marker vimentin, protein expression” value is reported as “decreased”; the “activation of metabolic pathways in tumors” value is “did not affect the activation of metabolic pathways”; the “expression of the autophagy marker L3CB” value is “unchanged”. In the data set on AK4.4 tumors (Western blot, metformin 300 mg/Kg), the “reduction of metalloproteinase 9 (MMP9) protein” value was 70%. Further, the “MMP activity in tumors” value in the data set with AK4.4 tumors (compared to control mice) was “decreased”. For the same molecule, in the data set on AK4.4 tumors (setting [2]), the “TAM levels lower with metformin treatment (F4/80)” value worked out at 60%; the “activation of STAT3 in whole tumors” value is “decreased activation of STAT3”; the “expression of IL-1β and CXCL-1 in tumors (multiplex protein array)” value was “reduced the expression of IL-1β and CXCL-1”. In the data set with AK4.4 tumors (setting [3]), the “decrease of percentage of activated (αSMA) PSCs that co-express HA” value is listed as 58%, the “decrease of percentage of activated (αSMA) PSCs that co-express collagen-I” value stood at 38% and the “expression of AT1 in tumors (Western blot)” value was “reduce the expression of AT1”. In addition, in the data set on AK4.4 tumors (setting [4]), the “reduced expression of HA” value is 64% and the “reduced expression of collagen-I” value turned out to be 35%. Further, in the data set on AK4.4 tumors (tumor-bearing mice), the body weight result was “no change in body weight”. For the same molecule, the “FGF-2 gene and protein expression, downstream signaling” value in the data set on MCA-IV tumors (obese animals treated with anti-VEGF) is “decreases”. Further, the vessel density entry in the data set on MCA-IV tumors (obese animals treated with anti-VEGF, metformin) is recorded as “decreases”. Further, in the data set with MCA-IV tumors (obese setting, metformin), the “tumor growth response to anti-VEGF” value is “improved tumor growth response to anti-VEGF”. For the same molecule, the “approximate plasma concentration of metformin” value in data set [1] was around 0.05 mM.

Source of the values: patent US20180064662A1 (THE GENERAL HOSPITAL CORPORATION, priority 2015, published 2018).
